Test results from patent EP0075626A1, “Novel rutin nona- and deca(H-)sulfate salts, methods of preparing novel salts, and use of novel salts of complement inhibitors” (AMERICAN CYANAMID COMPANY, priority 1981, dated 1983).

Molecular target: T1, activated complement protein Cl (Homo sapiens, UniProt P09871)
T1 sequence (P09871 16-437 limits assumed): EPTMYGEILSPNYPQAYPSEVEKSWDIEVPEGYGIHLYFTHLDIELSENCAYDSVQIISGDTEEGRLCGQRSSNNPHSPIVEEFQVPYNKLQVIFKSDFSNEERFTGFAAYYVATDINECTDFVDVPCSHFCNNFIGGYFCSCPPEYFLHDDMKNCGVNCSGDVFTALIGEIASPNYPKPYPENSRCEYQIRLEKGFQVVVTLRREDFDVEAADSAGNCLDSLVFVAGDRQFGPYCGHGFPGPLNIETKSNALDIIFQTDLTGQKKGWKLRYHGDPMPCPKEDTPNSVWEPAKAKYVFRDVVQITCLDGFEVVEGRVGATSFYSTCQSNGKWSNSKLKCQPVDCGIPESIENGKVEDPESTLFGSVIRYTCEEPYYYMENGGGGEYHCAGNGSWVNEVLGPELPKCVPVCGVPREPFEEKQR
T1 sequence (P09871 438-688 limits assumed): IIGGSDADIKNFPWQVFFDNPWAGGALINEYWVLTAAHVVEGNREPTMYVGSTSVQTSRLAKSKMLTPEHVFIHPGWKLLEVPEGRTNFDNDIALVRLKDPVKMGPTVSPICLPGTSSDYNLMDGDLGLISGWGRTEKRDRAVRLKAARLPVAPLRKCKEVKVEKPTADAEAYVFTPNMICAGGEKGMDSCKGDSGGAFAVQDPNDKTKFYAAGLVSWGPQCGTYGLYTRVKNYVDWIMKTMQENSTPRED
Assay: Test Code 026 (C 1 inhibitor): protection of fluid phase C2 from activated C1 in the presence of C4, serial dilution assay
Assay type: biochemical
Conditions: for times as active as the mixture of hexa- through deca- salts produced by Example 2 of European Application No. 13470A: Test Code 026, worked out from well numbers, two-fold serial dilutions; for In Vitro Activity Test Code 026: activity in wells, two-fold serial dilution assay, the higher the well number the higher the activity
Text: An active inhibitor protects C2 from Cl and C4.
This test measures activity in wells by a serial dilution assay. The higher the well number the higher is the activity. The serial dilutions are two-fold, so that in the test shown above the rutin deca(H-)sulfate sodium salt in accordance with this invention is 16 times as active as the mixture of hexa- through deca- salts produced by Example 2 of European Application No. 13470A, whilst the rutin nona(H-)sulfate sodium salt in accordance with this invention is 8 times as active as the aforesaid mixture.

Row | times as active as the mixture of hexa- through deca- salts produced by Example 2 of European Application No. 13470A | In Vitro Activity Test Code 026 | Substance
1 | 16 times | +11 | Rutin deca (H-sulfate) Sodium Salt [Rutin deca(H-)sulfate sodium salt]
2 | 8 times | +10 | Rutin nona (H-sulfate) Sodium Salt [Rutin nona(H-)sulfate sodium salt]
